Key:
CHK1 = target: T1, CHK1 (Homo sapiens, UniProt O14757); assay: Kinase inhibition assay, CHK1; assay type: biochemical
T1 construct: His-tagged CHK1 (residues M1-T476); His; made in house; host or cells: Sf9 insect cells
Protocol: (§1) CHK1/2 – The recombinant His-tagged CHK1 (residues M1-T476) or CHK2 (residues M1-L543) containing kinase domain were expressed in Sf9 insect cells. The kinase assay was carried out in 96-well plates with the tested compound at 30°C for 120 min.
(§2) Composition of the reaction buffers used in different kinase inhibitory assays is described in Figure S3.
(§3) 25 mM HEPES pH 7.4, 10mM MgCl2, 4mM MnCl2, 0.5mM Na3VO4, 2 mM DTT, 0.02% Triton X100, 0.01% BSA, 1 mM ATP, 2 mM CHK peptide ([…]), 50~500 ng recombinant CHK1 or CHK2.

IM9 cells = assay: Clonogenic assay, IM9; assay type: cell-based, Human; details: Homo sapiens; IM9, lymphoma, p53 wild-type, MDR1 negative; read-out: IC50, anti-proliferative activity
Protocol: (§4) Human lung adenocarcinoma A549 cells and NTUB1 bladder cancer cells were maintained in RPMI supplied with 10% fetal bovine serum. […] KB-derived MRP1-expressing cell line, KB-7D, was maintained in growth medium supplemented with 7 µM VP-16.
(§5) Two hundred cells in logarithmic growth phase were seeded in a 6-well plate. The cells were exposed to various concentrations of the test drugs for a three-generation period. At the end of the incubation period, cells were fixed and stained with 50% ethanol containing 0.5% methylene blue for 30 min. The plates were washed five times with water and allowed to air-dry. Colonies were countered manually. […] Each value represents the average of at least three independent experiments run in triplicates.

HT29 cells = assay: Clonogenic assay, HT29; assay type: cell-based, Human; details: Homo sapiens, HT-29; HT29, colon, p53 mutant, MDR1 negative; read-out: IC50, anti-proliferative activity
Protocol: as §4, §5

[1] = tested on: human cervical carcinoma KB xenografts; assay: KB xenograft in nude mice; assay type: in vivo; details: for decrease in tumor volume: day 30, BPR1K653 15 mg/kg or VX680 30 mg/kg i.p.
Protocol: Under in vivo conditions, tumors were dissected from the euthanized mice and instantly stored under −80°C. Tumor tissue sections were prepared from the use of cryostats (Leica Microsystems, Buffalo Grove, IL), and subsequently fixed with ice-cold methanol. Tissue sections were stained by the TUNEL reagent using Fluorescent (green) In-Situ Apoptosis Detection Kit (catalog number #11684795910, Roche Diagnostic, Mannheim, Germany). Cells were counterstained with DAPI to detect nucleus, and examined by fluorescence microscopy. Amount of green fluorescence labeled (DNA fragmented) cells were counted and percentage of apoptotic cells were calculated as follows: Amount of green fluorescence labeled cells ÷ Total cells available×100. Experiments were repeated independently at least two times.
(§6) Male nude mice (5–6-weeks-old) were purchased from the National Laboratory Animal Centre (Taiwan R.O.C.). The animals were s.c. implanted with 5×10^5 KB cells or 1×10^6 KB-VIN10 cells mixed with equal volume of Matrigel (Becton Dickinson) in 0.1 mL at one flank per mouse via a 22-gauge needle. Tumor growth was examined twice a week after implantation, and the volume of tumor mass was measured with an electronic caliper and calculated as 1/2×length×width^2 in mm^3.
(§7) BPR1K653 was dissolved completely in a vehicle mixture of DMSO/cremophor/saline (1∶2∶7). Selected dose of BPR1K653 was decided base on the following conditions: 1/2 of the dosage that caused noticeable body weight loss (>10%) in the treated mice during toxicity study. […] The control group (5 mice) was treated with vehicle mixture only. Tumor size and animal body weight were measured every three days after drug treatment. Toxicity was evaluated based on the body weight reduction. At the end of the experiments (tumor size of the control >2000 mm^3), animals were euthanized with carbon dioxide.
Tumors were harvested and instantly stored at −80°C. Frozen cryostat sections were fixed with ice-cold methanol for 10 min. After washing with PBS, endogenous peroxidase was blocked using 3% hydrogen peroxide in TBS for 5 min. Immunostaining process was carried out according to the user's manual of the ABC Peroxidase Staining Kit (Pierce Biotechnology, Rockford, IL). Briefly, the tissues were incubated with a protein-blocking solution for 20 min, and subsequently stained with an anti-phosphorylated Histone H3 (Ser10) polyclonal antibody for 1 hour at room temperature. Then, the samples were incubated with the ABC reagent for 30 min, and subsequently incubated with the metal enhanced DAB substrate. The sections were counterstained with hematoxylin.

HCT116 cancer cells = assay: Western blot of phosphor-Aurora kinases and phosphor-Histone H3 in HCT116 cells; assay type: cell-based
Protocol: (§8) Cells were lysed with ice-cold lysis buffer (10 mM Tris, 1 mM EDTA, 1 mM DTT, 60 mM KCl, 0.5% NP-40 and protease inhibitors). […] The resolved proteins were electrophoretically transferred to PVDF membranes (Amersham Life Science, Amersham, U.K.) for Western blot analysis. The membranes were blocked with 5% non-fat milk at room temperature for two hours, washed twice with TBST (1% Tween) and then incubated with either anti-phosphorylated Aurora-A/-B/-C kinase antibody (#2914S, Cell Signaling Technology, Danvers, MA), anti-Aurora-A and -B kinase antibody (#ab1287 and #ab2254, Abcam, Cambridge, MA), anti-phosphorylated Histone H3 antibody (#9701, Cell Signaling Technology, Danvers, MA), anti-Histone H3 antibody (#9715, Cell Signaling Technology, Danvers, MA), anti-Cyclin B1 antibody or anti-Actin antibody (#sc-245 and #sc-130065, Santa Cruz Biotechnology, Santa Cruz, CA) overnight at 4°C. Membranes were washed twice with TBST then subsequently incubated with a horseradish peroxidase-conjugated secondary antibody (Santa Cruz Biotechnology, Santa Cruz, CA) for 1 hour at room temperature. Immunoreactivity was detected by Enhanced Chemiluminescence (Amersham International, Buckingham, U.K.) and autoradiography. Experiments were repeated independently at least two times.

KB cells = assay: Western blot of Histone H3 phosphorylation and cyclin B1, KB; assay type: cell-based, Human; details: 48 h, BPR1K653 12, 24, 36 nM, VX680 170 and 255 nM
Protocol: as §8

[2] = tested on: MDR1-expressing KB-VIN10 xenograft; assay: KB-VIN10 xenograft in nude mice; assay type: in vivo; details: 5 days/week for 3 weeks; for decrease in tumor volume: Day 42, BPR1K653 15 mg/kg or VX680 30 mg/kg i.p.
Protocol: as §6, §7

KB-VIN10 cells = assay: Clonogenic assay, KB-VIN10; assay type: cell-based, Human; details: for IC50: Homo sapiens, KB-VIN10, vincristine resistant, MDR1 ↑, read-out: IC50, anti-proliferative activity
Protocol: as §4, §5

CHK2 = target: T2, CHK2 (Homo sapiens, UniProt O96017); assay: Kinase inhibition assay, CHK2; assay type: biochemical
T2 construct: CHK2 (residues M1-L543) containing kinase domain; His; made in house; host or cells: Sf9 insect cells
T2 sequence (O96017 whole entry, the tested form may be a part): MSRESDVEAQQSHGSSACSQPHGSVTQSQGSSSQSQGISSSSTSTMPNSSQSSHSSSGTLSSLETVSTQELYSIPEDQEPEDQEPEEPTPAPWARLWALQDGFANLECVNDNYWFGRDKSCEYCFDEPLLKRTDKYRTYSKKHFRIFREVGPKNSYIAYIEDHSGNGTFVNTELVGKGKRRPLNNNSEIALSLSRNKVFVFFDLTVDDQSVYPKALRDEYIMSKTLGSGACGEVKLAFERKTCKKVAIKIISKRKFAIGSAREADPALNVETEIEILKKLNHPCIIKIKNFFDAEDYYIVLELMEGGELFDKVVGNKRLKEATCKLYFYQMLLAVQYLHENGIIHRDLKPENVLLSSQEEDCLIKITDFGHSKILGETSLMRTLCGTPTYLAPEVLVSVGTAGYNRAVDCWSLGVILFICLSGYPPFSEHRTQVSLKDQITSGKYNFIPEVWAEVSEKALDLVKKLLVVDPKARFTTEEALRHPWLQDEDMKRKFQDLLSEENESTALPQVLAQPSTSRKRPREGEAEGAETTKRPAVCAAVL
Protocol: as §1, §2, §3

T1 sequence (O14757 whole entry, the tested form may be a part): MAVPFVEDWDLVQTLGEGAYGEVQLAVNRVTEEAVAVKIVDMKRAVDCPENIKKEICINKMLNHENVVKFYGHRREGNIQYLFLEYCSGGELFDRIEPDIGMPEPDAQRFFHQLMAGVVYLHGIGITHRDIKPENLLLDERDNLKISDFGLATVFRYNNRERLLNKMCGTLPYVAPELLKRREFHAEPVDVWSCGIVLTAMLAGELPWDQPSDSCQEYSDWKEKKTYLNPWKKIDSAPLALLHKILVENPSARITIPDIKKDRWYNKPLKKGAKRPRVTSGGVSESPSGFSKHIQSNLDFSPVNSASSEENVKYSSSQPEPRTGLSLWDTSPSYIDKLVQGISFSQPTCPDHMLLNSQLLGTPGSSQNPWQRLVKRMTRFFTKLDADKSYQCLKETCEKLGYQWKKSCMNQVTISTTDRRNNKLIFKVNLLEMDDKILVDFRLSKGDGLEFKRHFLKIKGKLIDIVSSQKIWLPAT

Row | Structure (SMILES) | IC50 (CHK1) [nM] | IC50 (IM9 cells) [nM] | IC50 (HT29 cells) [nM] | phosphor-Histone H3 positive cells present in tumor tissues ([1]; 15 mg/kg i.p., 24 h after second administration, control 60%) [%] | loss of body weight after treatment ([1]; 15 mg/kg i.p., 5 days/week for 2 weeks, vs control group) | apoptotic cells present in the tumor tissue (TUNEL) ([1]; 15 mg/kg i.p., 12 days post-treatment, control 7%) [%] | decrease in tumor volume ([1]; 5 days/week for 2 weeks) [%] | phosphor-Aurora-A, -B and -C kinase (HCT116 cancer cells) | phosphor-Histone H3 (Ser10) (HCT116 cancer cells) | Histone H3 phosphorylation and cyclin B1 expression (KB cells) | loss of body weight after treatment ([2]; 15 mg/kg i.p., vs control group) | decrease in tumor volume [2] | IC50 (KB-VIN10 cells) [nM] | Fold difference as compare to the IC50 in the respective parental cells (KB-VIN10 cells; KB-VIN10 vs KB) [fold] | IC50 (CHK2) [nM]
1 | CN(C)Cc1ccccc1NC(=O)Nc1ccc(CCNc2ncnc3oc(-c4ccccc4)c(Cl)c23)cc1 [BPR1K653] | > 10000 | 4 ± 2 | 12 ± 2 | 10 | less than 10% | 55 | ~73 | concentration-dependent decrease | concentration-dependent decrease | inhibition of Histone H3 phosphorylation and down-regulation of cyclin B1 expression | less than 10% | ~50% | 14 ± 4 | 1 | 2300
2 | Cc1cc(Nc2cc(N3CCN(C)CC3)nc(Sc3ccc(NC(=O)C4CC4)cc3)n2)[nH]n1 [VX680] | – | 31 ± 16 | 160 ± 33 | – | – | – | ~68 | reduced in a concentration-dependent manner | reduced the amount of phosphor-Histone H3 (Ser10) | inhibited the phosphorylation of Histone H3 and the expression of cyclin B1 | – | did not exhibit significant tumor growth inhibitory effect | 1400 ± 140 | – | –
